Source: publication PMC4512978, “Synthesis and evaluation in rats of homologous series of [^18F]-labeled dopamine D2/3 receptor agonists based on the 2-aminomethylchroman scaffold as potential PET tracers” (EJNMMI Research, 2015)
Where “and” joins values, the source holds several entries; their conditions need not be identical. Equal values may be shown once.

Tests used:
striatal D2/3R = assay: Ex vivo autoradiography study in rats
Method: To further assess the specific binding of [^18F]FEt-AMC13 to the striatal D2/3R, two groups of rats were anesthetized, pre-treated with saline (n = 3) or raclopride (n = 3), and 26 ± 3 min later injected with a bolus of [^18F]FEt-AMC13 (4.2 ± 1.4 MBq, 0.14 ± 0.04 nmol/kg) into the penile vein. Rats were sacrificed by heart extirpation 35 min later. Brains were quickly extracted and separated into two halves along the sagittal symmetry plane or along the coronal plane spanning the thalamus.
One half of the brain (rostral or randomly taken left/right) was quickly frozen over liquid nitrogen and prepared for cutting on the microtome in the same manner as brains used for in vitro autoradiography. Slices 40 μm thick were cut, mounted on Superfrost glass slides, permitted to dry, and then directly applied to the phosphor storage screens.
(§1) Degree of D2/3R-specific binding of the tracers was characterized by BPND (as given above) or the specific binding ratio (SBR) given as target region activity/cerebellar activity - 1. Both were calculated under control conditions and in response to the raclopride challenge.

[1] = Ex vivo tissue uptake after the PET scan (gamma-counter); format: in vivo, Sprague-Dawley rats
Method: After the end of the PET scans (i.e., 98 ± 8 min after tracer injection), anesthetized animals were sacrificed by heart extirpation and dissected. Samples of brain and peripheral tissues were taken. All samples were weighed, and their radioactivity was measured in a gamma-counter.

D2/3R = assay: In vitro autoradiography of rat brain slices; format: binding, Sprague-Dawley rats
Method: In vitro autoradiography assay was performed as previously described. Frozen brains of young (10–12 weeks of age; 300–350 g body weight) male Sprague-Dawley rats (Harlan, Netherlands) were cut at −12 °C into sagittal slices 20 μm thick using a Leica microtome, and the slices were thaw-mounted on Superfrost (70 × 22 mm, Fischer) adhesive slides. Only slices containing both striatal and cerebellar regions were used. The slides with slices mounted them were allowed to dry, then put into storage boxes with silica gel bags and stored at −80 °C.
On the day of the experiment (within 1 week from the preparation of the slices), the slides were taken out of storage and allowed to come to room temperature for 5–10 min. Then, 1–1.2 mL of incubation buffer (50 mM Tris-HCl, 5 mM KCl, 2 mM CaCl2, 2 mM MgCl2, 120 mM NaCl, pH 7.4 25 °C) was applied per slide, and the slides were pre-incubated for 15 min at room temperature. The buffer was then removed, and the slides were placed into staining jars containing radioligand solution (concentration range of 0.1–10 nM) in the incubation buffer with or without 10 μM raclopride (D2/3 antagonist) or 100 μM guanosine-5'-triphosphate sodium salt (GTP, stimulator of G-protein uncoupling from the receptors). After 35 min of incubation at 37 °C, slides were washed once with ice-cold incubation buffer (3.5 min) and dipped for 30 s into ice-cold distilled water to remove buffer salts.
After drying the slides in a stream of room-temperature air, they were exposed on phosphor storage screens for 6–10 h. The storage screens were read by Cyclone Storage Phosphor System (Packard Instruments Co.). Quantification of plate readings was done with OptiQuant software (version 3.00, Packard Instruments Co.).
as §1

[2] = raclopride 1 mg/kg, after PET scan

With `Oc1ccc2c(c1)O[C@@H](CNCc1ccc(OCC[18F])cc1)CC2` [[^18F]FEt-AMC13] the “Ex vivo autoradiography-based SBR” value (striatal D2/3R; 1 mg/kg raclopride) was 1.06 ± 0.17, the “decrease of ex vivo autoradiography-based SBR” value (striatal D2/3R; 1 mg/kg raclopride, p < 0.01) was 39% and the “Striatum-to-cerebellum uptake ratio (ex vivo autoradiography)” value (striatal D2/3R; 35 min post-injection, saline pre-treated rats) was 2.8 and 2.81 ± 0.29. For the same compound, the “Ex vivo autoradiography-based SBR” value (striatal D2/3R; saline pre-treated) was 1.81 ± 0.29, the “Striatal SBR based on after-scan biodistribution measurements” value ([1]; 1 mg/kg raclopride) was 0.74 ± 0.27 and the “decrease of biodistribution-based striatal SBR” value ([1]; 1 mg/kg raclopride, p = 0.17) was 31%. For the same compound, the “Ex vivo uptake, Adipose tissue” value ([1]; RAC) was 0.09±0.02 SUV, the “Ex vivo uptake, Adrenal glands” value ([1]; RAC) was 0.59±0.20 SUV and the “Ex vivo uptake, Bladder” value ([1]; RAC) was 0.83±0.64 SUV. The “Ex vivo uptake, Blood cells” value ([1]; RAC) was 0.06±0.01 SUV, the “Ex vivo uptake, Bone” value ([1]; RAC) was 0.17±0.05 SUV and the “Ex vivo uptake, Bone marrow” value ([1]; RAC) was 2.00±3.17 SUV. For the same compound, the “Ex vivo uptake, Caecum” value ([1]; RAC) was 0.63±0.84 SUV, the “Ex vivo uptake, Duodenum” value ([1]; RAC) was 4.01±4.63 SUV and the “Ex vivo uptake, Heart” value ([1]; RAC) was 0.16±0.02 SUV. For the same compound, the “Ex vivo uptake, Kidney” value ([1]; RAC) was 0.48±0.07 SUV, the “Ex vivo uptake, Large intestine” value ([1]; RAC) was 0.41±0.33 SUV and the “Ex vivo uptake, Large intestine content” value ([1]; RAC) was 0.09±0.12 SUV. For the same compound, the “Ex vivo uptake, Liver” value ([1]; RAC) was 1.43±0.30 SUV, the “Ex vivo uptake, Lung” value ([1]; RAC) was 1.38±0.20 SUV and the “Ex vivo uptake, Muscle” value ([1]; RAC) was 0.19±0.05 SUV. For the same compound, the “Ex vivo uptake, Pancreas” value ([1]; RAC) was 1.47±0.32 SUV, the “Ex vivo uptake, Plasma” value ([1]; RAC) was 0.23±0.01 SUV and the “Ex vivo uptake, Prostate” value ([1]; RAC) was 0.40±0.26 SUV. The “Ex vivo uptake, Small intestine” value ([1]; RAC) was 2.39±1.94 SUV, the “Ex vivo uptake, Small intestine content” value ([1]; RAC) was 24.6±32.8 SUV and the “Ex vivo uptake, Spleen” value ([1]; RAC) was 0.52±0.10 SUV. The “Ex vivo uptake, Stomach” value ([1]; RAC) was 2.09±1.19 SUV, the “Ex vivo uptake, Submandibular gland” value ([1]; RAC) was 0.28±0.06 SUV and the “Ex vivo uptake, Testes” value ([1]; RAC) was 0.42±0.10 SUV. For the same compound, the “Ex vivo uptake, Thymus” value ([1]; RAC) was 0.30±0.06 SUV, the “Ex vivo uptake, Urine” value ([1]; RAC) was 4.40±3.88 SUV and the “Ex vivo uptake, Whole blood” value ([1]; RAC) was 0.17±0.01 SUV. The “Ex vivo uptake, Adipose tissue” value ([1]; SAL) was 0.30±0.42 SUV, the “Ex vivo uptake, Adrenal glands” value ([1]; SAL) was 0.84±0.29 SUV and the “Ex vivo uptake, Bladder” value ([1]; SAL) was 1.00±0.52 SUV. For the same compound, the “Ex vivo uptake, Blood cells” value ([1]; SAL) was 0.07±0.01 SUV, the “Ex vivo uptake, Bone” value ([1]; SAL) was 0.24±0.21 SUV and the “Ex vivo uptake, Bone marrow” value ([1]; SAL) was 0.68±0.38 SUV. The “Ex vivo uptake, Caecum” value ([1]; SAL) was 0.46±0.29 SUV, the “Ex vivo uptake, Duodenum” value ([1]; SAL) was 1.15±0.25 SUV and the “Ex vivo uptake, Heart” value ([1]; SAL) was 0.15±0.04 SUV. The “Ex vivo uptake, Kidney” value ([1]; SAL) was 0.64±0.20 SUV, the “Ex vivo uptake, Large intestine” value ([1]; SAL) was 0.57±0.36 SUV and the “Ex vivo uptake, Large intestine content” value ([1]; SAL) was 0.06±0.03 SUV. The “Ex vivo uptake, Liver” value ([1]; SAL) was 1.51±0.14 SUV, the “Ex vivo uptake, Lung” value ([1]; SAL) was 1.67±0.41 SUV and the “Ex vivo uptake, Muscle” value ([1]; SAL) was 0.17±0.04 SUV. For the same compound, the “Ex vivo uptake, Pancreas” value ([1]; SAL) was 1.31±0.31 SUV, the “Ex vivo uptake, Plasma” value ([1]; SAL) was 0.22±0.04 SUV and the “Ex vivo uptake, Prostate” value ([1]; SAL) was 0.62±0.18 SUV. For the same compound, the “Ex vivo uptake, Small intestine” value ([1]; SAL) was 3.15±2.00 SUV, the “Ex vivo uptake, Small intestine content” value ([1]; SAL) was 54.2±57.7 SUV and the “Ex vivo uptake, Spleen” value ([1]; SAL) was 0.46±0.05 SUV. The “Ex vivo uptake, Stomach” value ([1]; SAL) was 1.36±0.35 SUV, the “Ex vivo uptake, Submandibular gland” value ([1]; SAL) was 0.36±0.12 SUV and the “Ex vivo uptake, Testes” value ([1]; SAL) was 0.40±0.06 SUV. For the same compound, the “Ex vivo uptake, Thymus” value ([1]; SAL) was 0.32±0.06 SUV, the “Ex vivo uptake, Urine” value ([1]; SAL) was 11.0±9.5 SUV and the “Ex vivo uptake, Whole blood” value ([1]; SAL) was 0.16±0.03 SUV. The “Ex vivo uptake, Brainstem” value [1, 2] was 0.16 ± 0.04 SUV, the “Ex vivo uptake, Cerebellum” value [1, 2] was 0.13 ± 0.02 SUV and the “Ex vivo uptake, Cortex” value [1, 2] was 0.16 ± 0.04 SUV. For the same compound, the “Ex vivo uptake, Hippocampus” value [1, 2] was 0.23 ± 0.08 SUV, the “Ex vivo uptake, Mean brain uptake” value [1, 2] was 0.16 ± 0.04 SUV and the “Ex vivo uptake, Olfactory bulbs” value [1, 2] was 0.15 ± 0.04 SUV. The “Ex vivo uptake, Parietal bone” value [1, 2] was 0.10 ± 0.01 SUV, the “Ex vivo uptake, Pituitary” value [1, 2] was 0.59 ± 0.20 SUV and the “Ex vivo uptake, Rest of brain” value [1, 2] was 0.18 ± 0.03 SUV. For the same compound, the “Ex vivo uptake, Striatum” value [1, 2] was 0.23 ± 0.08 SUV, the “Ex vivo uptake, Thalamus + hypothalamus” value [1, 2] was 0.19 ± 0.05 SUV and the “Striatal SBR based on after-scan biodistribution measurements” value ([1]; saline pre-treated) was 1.07 ± 0.10. For the same compound, the “Ex vivo uptake, Brainstem” value ([1]; saline, after PET scan) was 0.18 ± 0.02 (6) SUV, the “Ex vivo uptake, Cerebellum” value ([1]; saline, after PET scan) was 0.13 ± 0.01 (8) SUV and the “Ex vivo uptake, Cortex” value ([1]; saline, after PET scan) was 0.18 ± 0.01 (5) SUV. The “Ex vivo uptake, Hippocampus” value ([1]; saline, after PET scan) was 0.22 ± 0.02 (2) SUV, the “Ex vivo uptake, Mean brain uptake” value ([1]; saline, after PET scan) was 0.18 ± 0.01 SUV and the “Ex vivo uptake, Olfactory bulbs” value ([1]; saline, after PET scan) was 0.17 ± 0.01 (7) SUV. The “Ex vivo uptake, Parietal bone” value ([1]; saline, after PET scan) was 0.10 ± 0.01 SUV, the “Ex vivo uptake, Pituitary” value ([1]; saline, after PET scan) was 0.76 ± 0.08 SUV and the “Ex vivo uptake, Rest of brain” value ([1]; saline, after PET scan) was 0.20 ± 0.02 (3) SUV. For the same compound, the “Ex vivo uptake, Thalamus + hypothalamus” value ([1]; saline, after PET scan) was 0.19 ± 0.003 (4) SUV, the “Ex vivo uptake, Striatum” value ([1]; saline, after PET scan (98 ± 8 min p.i.)) was 0.28 ± 0.03 (1) SUV and the “decrease of striatal SBR (D2/3R-specific binding) by raclopride in vitro” value (D2/3R; 10 μM raclopride, compared to control conditions) was 81%. The “mean striatum-to-cerebellum uptake ratio in vitro” value (D2/3R; rat brain slices) was 4.4, the “Striatal SBR % change relative to control condition, Raclopride” value (D2/3R; with 10 μM raclopride) was −81% and the “Striatal SBR, Raclopride” value (D2/3R; with 10 μM raclopride) was 0.63 ± 0.53. For the same compound, the “Striatal SBR % change relative to control condition, GTP” value (D2/3R; with 100 μM GTP) was −81% and the “Striatal SBR, GTP” value (D2/3R; with 100 μM GTP) was 0.66 ± 0.52.
